From patent publication US20020035061A1, “COMPOSITIONS AND METHODS FOR TREATING INFECTIONS USING CATIONIC PEPTIDES ALONE OR IN COMBINATION WITH ANTIBIOTICS” (priority 1996, published 2002)
Read-outs that look alike come from different tables or passages of the source.

Assays:
[1] = system: E. faecium; assay type: cell-based
[2] = system: K. pneumoniae; assay type: cell-based
[3] = system: E. faecalis; assay type: cell-based
[4] = system: P. aeruginosa; assay type: cell-based; conditions: for Peptide MIC values: agarose dilution
[5] = system: E. coli; assay type: cell-based; conditions: for Peptide MIC values: agarose dilution
[6] = system: S. aureus; assay type: cell-based; conditions: for Peptide MIC values: agarose dilution
[7] = system: S. maltophilia; assay type: cell-based
[8] = system: A. calcoaceticus; assay type: cell-based
[9] = system: S. epidermidis; assay type: cell-based
[10] = system: S. marcescens; assay type: cell-based
[11] = system: E. cloacae; assay type: cell-based; conditions: E. cloacae strain ECL007
[12] = system: MSSA (Smith, ATCC # 19640); test: In vivo efficacy, MSSA infection; parameters: species or system S. aureus; conditions: formulation D, 60 min post-infection, end of eight day observation
[13] = system: microorganisms with acquired resistance; test: microbe, parasite or virus in culture; assay type: cell-based; conditions: S. aureus; combination with Mupirocin; in µg/mL
[14] = system: S. pneumoniae; test: Agarose dilution assay (MIC); assay type: cell-based; conditions: agarose dilution

| Sequence | MIC ([1]; E. faecium strain EFM001) [µg/mL] | MIC ([2]; K. pneumoniae strain KP002) [µg/mL] | MIC ([3]; E. faecalis strain EFS002) [µg/mL] | MIC ([5]; E. coli strain ECO002) [µg/mL] | MIC ([7]; S. maltophilia strain SMA001) [µg/mL] | MIC ([9]; S. epidermidis strain SE010) [µg/mL] | MIC ([10]; S. marcescens strain SMS003) [µg/mL] | MIC [11] [µg/mL] | MIC ([2]; K. pneumoniae strain KP001) [µg/mL] | MIC ([5]; E. coli strain ECO003) [µg/mL] | MIC ([7]; S. maltophilia strain SMA002) [µg/mL] | MIC ([8]; A. calcoaceticus strain AC002) [µg/mL] | MIC ([9]; S. epidermidis strain SE002) [µg/mL] | MIC ([10]; S. marcescens strain SMS004) [µg/mL] | MIC ([4]; P. aeruginosa strain PA004) [µg/mL] | MIC ([3]; E. faecalis strain EFS008) [µg/mL] | MIC ([5]; E. coli strain ECO005) [µg/mL] | MIC ([1]; E. faecium strain EFM003) [µg/mL] | MIC ([6]; S. aureus strain SA009) [µg/mL] | also measured |
| --- | --- | --- | --- | --- | --- | --- | --- | --- | --- | --- | --- | --- | --- | --- | --- | --- | --- | --- | --- | --- |
| LKKWPWWPWRRK [MBI 11D1CN] | 16 | 64 | 32 | 16 | 64 | 8 | >128 | >128 |  |  |  |  |  |  |  |  |  |  |  | MIC ([4]; P. aeruginosa strain PA003): >128 µg/mL; MIC ([6]; S. aureus strain SA004): 2 µg/mL; MIC ([8]; A. calcoaceticus strain AC001): >128 µg/mL |
| ILKKWPWWWRRK [MBI 11G5CN] |  |  | 16 |  |  |  |  | >128 | >128 | 16 | 64 | 4 | 2 | >128 |  |  |  |  |  | MIC ([1]; E. faecium strain EFM002): 8 µg/mL; MIC ([4]; P. aeruginosa strain PA003): >128 µg/mL; MIC ([6]; S. aureus strain SA012): 4 µg/mL |
| ILKKWPWPWRRK [MBI 11A4CN] | 32 |  | 64 |  |  |  |  | >128 | >128 | 32 | >128 | 8 | 8 | >128 | >128 |  |  |  |  | MIC ([6]; S. aureus strain SA005): 2 µg/mL |
| ILKKWPWWPWRRK [MBI 11E2CN] | 16 | 64 | 32 | 8 | 64 | 4 |  | >128 |  |  |  | 4 |  | >128 |  |  |  |  |  | MIC ([4]; P. aeruginosa strain PA001): >128 µg/mL; MIC ([6]; S. aureus strain SA016): 2 µg/mL |
| ILKKWPWWPWR [MBI 11G14CN] | 16 | 128 | 32 |  |  |  |  | >128 |  | 32 | 128 | 8 | 8 | >128 |  |  |  |  |  | MIC ([4]; P. aeruginosa strain PA006): >128 µg/mL; MIC ([6]; S. aureus strain SA013): 0.5 µg/mL |
| ILKKWAWWPWRRK [MBI 11C3CN] |  |  | 32 | 16 |  |  |  | >128 | 128 |  | 64 | 4 | 2 | >128 |  |  |  |  |  | MIC ([1]; E. faecium strain EFM002): 1 µg/mL; MIC ([4]; P. aeruginosa strain PA005): >128 µg/mL; MIC ([6]; S. aureus strain SA005): 2 µg/mL |
| ILKKFPWFPWRRK [MBI 11A6CN] |  |  |  |  |  | 4 | >128 | >128 | 32 |  | 128 | 2 |  |  | >128 | 8 | 16 |  |  | MIC ([1]; E. faecium EFM003): 2 µg/mL; MIC ([3]; E. faecalis EFS004): 64 µg/mL; MIC ([3]; E. faecalis strain EFS001): 1 µg/mL; MIC ([6]; S. aureus SA016): 2 µg/mL; MIC ([6]; S. aureus strain SA014): 4 µg/mL; MIC ([6]; S. aureus strain SA093): 0.5 µg/mL |
| ILKKWPWWPWRRIMILKKAGS [MBI 11D6CN] |  | >64 | 4 | 32 | >64 | 4 |  | >32 |  |  |  | 4 |  | >64 |  |  |  | 1 | 8 | MIC ([4]; P. aeruginosa strain PA024): >64 µg/mL |
| ILKNPNNPWRR [MBI 11G7ACN] | 8 | >32 |  | 16 | 32 |  |  | >32 |  |  |  | 4 | 4 | >32 |  | 32 |  |  |  | MIC ([4]; P. aeruginosa strain PA006): >32 µg/mL; MIC ([6]; S. aureus strain SA010): 1 µg/mL |
| ILKWPWWPWRK [MBI 11B5CN] |  |  | 16 |  |  | 1 | >128 | >128 | 16 |  | 64 | 4 |  |  | >128 | 8 | 16 |  |  | MIC ([1]; E. faecium strain EFM002): 1 µg/mL; MIC ([3]; E. faecalis strain EFS001): 2 µg/mL; MIC ([6]; S. aureus strain SA005): 2 µg/mL; MIC ([6]; S. aureus strain SA014): 2 µg/mL; MIC ([6]; S. aureus strain SA093): 1 µg/mL |
| ILKKFPFWPWRRK [MBI 11A7CN] |  |  | 16 |  |  | 4 | >128 | >128 | 8 |  | 64 | 4 |  |  | >128 | 4 | 8 | 2 | 2 | MIC ([3]; E. faecalis strain EFS001): 2 µg/mL; MIC ([6]; S. aureus strain SA014): 4 µg/mL; MIC ([6]; S. aureus strain SA093): 1 µg/mL |
| IKKWPWWPWRRK [MBI 11G2CN] |  | 128 |  |  | >128 |  |  | >128 |  | 16 |  |  |  | >128 | >128 |  |  |  | 2 | MIC ([1]; E. faecium strain EFM002): 4 µg/mL; MIC ([3]; E. faecalis strain EFS004): 16 µg/mL; % Survival ([12]; 12 mg/kg ip): 10%; % Survival ([12]; 18 mg/kg ip): 0%; % Survival ([12]; 24 mg/kg ip): 40% |
| ILKKWPWWPRRK [MBI 11G6CN] |  |  | 128 | 32 | >128 |  | >128 | >128 | >128 |  |  |  | 8 |  | >128 |  |  | 4 |  | MIC ([6]; S. aureus strain SA006): 2 µg/mL; MIC ([8]; A. calcoaceticus strain AC001): >128 µg/mL |
| ILKKWPWW PWKKK [MBI 11B10CN] |  |  | 64 |  |  | 4 | >128 | >128 | 32 |  | 128 | 2 |  |  | >128 | 64 | 16 | 4 |  | MIC ([3]; E. faecalis strain EFS001): 8 µg/mL; MIC ([6]; S. aureus strain SA008): 2 µg/mL; MIC ([6]; S. aureus strain SA014): 4 µg/mL; MIC ([6]; S. aureus strain SA093): 1 µg/mL |
| ILKKWPWWAWRRK [MBI 11C4CN] |  |  | 32 |  |  |  |  | >128 | >128 |  | 64 | 4 | 4 | >128 |  |  | 32 | 2 | 4 | MIC ([4]; P. aeruginosa strain PA005): >128 µg/mL |
| ILKKWVWWVWRRK [MBI 11F1CN] |  | 32 |  |  |  |  | >128 | >128 |  | 8 |  |  |  |  | 64 |  |  | 2 | 2 | Peptide MIC values ([1]; agarose dilution): 8 µg/mL; MIC ([3]; E. faecalis strain EFS004): 16 µg/mL; Peptide MIC values ([4]; P. aeruginosa ATCC 27853): 64 µg/mL; Peptide MIC values ([4]; P. aeruginosa NCTC 10662): 64 µg/mL; Peptide MIC [13]: 8; Peptide MIC values ([5]; E. coli ATCC 25922): 8 µg/mL; Peptide MIC values ([5]; E. coli NCTC 10418): 2 µg/mL; Peptide MIC values ([6]; S. aureus MRSA9): 2 µg/mL; Peptide MIC values ([6]; S. aureus MRSA13): 16 µg/mL; Peptide MIC values ([6]; S. aureus MRSA17): 2 µg/mL; Peptide MIC values ([14]; S. pneumoniae 406LE8): 128 µg/mL; Peptide MIC values ([14]; S. pneumoniae 60120): 128 µg/mL; Peptide MIC values ([14]; S. pneumoniae ATCC 49619): 64 µg/mL; MIC ([10]; S. marcescens strain SBSM1): >128 µg/mL; Peptide MIC values ([10]; agarose dilution, S. marcescens SM82): >128 µg/mL |
